Measured values as given in patent US20230265094A1, “RIPK1 INHIBITORS AND METHODS OF USE” (Merck Sharp & Dohme LLC, priority 2020, published 2023).
Structures can show the parent of a compound that is named as a salt.

Biological target: T1, RIPK1 (Homo sapiens, UniProt Q13546)
T1 construct: recombinant GST-RIPK1 kinase domain (residues 1-327) enzyme produced from baculovirus-transfected Sf21 cells; host or cells: baculovirus-transfected Sf21 insect cells
T1 sequence (Q13546 1-327): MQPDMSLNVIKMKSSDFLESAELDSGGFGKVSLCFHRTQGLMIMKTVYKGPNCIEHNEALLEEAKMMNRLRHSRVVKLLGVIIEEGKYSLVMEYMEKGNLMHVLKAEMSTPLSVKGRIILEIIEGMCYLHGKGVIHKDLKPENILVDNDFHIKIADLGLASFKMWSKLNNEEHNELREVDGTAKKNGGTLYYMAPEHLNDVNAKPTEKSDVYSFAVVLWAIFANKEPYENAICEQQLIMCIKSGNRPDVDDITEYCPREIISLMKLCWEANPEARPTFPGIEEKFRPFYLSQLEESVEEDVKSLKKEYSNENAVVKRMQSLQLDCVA
Assay: RIPK1-ADP-Glo enzymatic assay
Format: biochemical
Details: ADP-Glo luminescent ADP detection; 25 nM GST-RIPK1 kinase domain (residues 1-327), 300 μM ATP, dephosphorylated-MBP substrate; 30 min pre-incubation, 150 min reaction
Description: RIPK1-ADP-Glo Enzymatic Assay
The enzymatic activity of RIPK1 is measured using an assay derived from ADP-Glo kit (Promega™), which provides a luminescent-based ADP detection system. Specifically, the ADP generated by RIPK1 kinase is proportionally detected as luminescent signals in a homogenous fashion. In this context, the assessment of the inhibitory effect of small molecules (EC50) is measured by the effectiveness of the compounds to inhibit the ATP to ADP conversion by RIPK1.
In this assay, the potency (EC50) of each compound was determined from a ten-point (1:3 serial dilution; top compound concentration of 100000 nM) titration curve using the following outlined procedure. To each well of a white ProxiPlus 384 well-plate, 30 nL of compound (1% DMSO in final assay volume of 3 μL) was dispensed, followed by the addition of 2 μL of 1×assay buffer (25 mM Hepes 7.3, 20 mM MgCl2, 50 mM NaCl, 1 mM DTT, 0.005% Tween20, and 0.02% BSA) containing 37.5 nM of GST-RIPK1 (recombinant GST-RIPK1 kinase domain (residues 1-327) enzyme produced from baculovirus-transfected Sf21 cells: MW=62 kDa). Plates were placed in an ambient temperature humidified chamber for a 30 minutes pre-incubation with compound. Subsequently, each reaction was initiated by the addition of 1 μL 1×assay buffer containing 900 μM ATP and […] dephosphorylated-MBP substrate. The final reaction in each well of 3 μL consists of 25 nM of GST-RIPK1, 300 μM ATP, and 3 μM dephosphorylated-MBP. Kinase reactions were allowed to proceed for 150 minutes prior to adding ADP-Glo reagents per Promega's outlined kit protocol. Dose-response curves were generated by plotting percent effect (% product conversion; Y-axis) vs. Log10 compound concentrations (X-axis). EC50 values were calculated using a non-linear regression, four-parameters sigmoidal dose-response model.

EC50	Structure (SMILES)
245 nM	O=C(N1CC(OC2CCCCC2)C1)N1N=CC[C@H]1c1cc(F)cc(F)c1 [Example 1.59, (S)-(3-(cyclohexyloxy)azetidin-1-yl)(5-(3,5-difluorophenyl)-4,5-dihydro-1H-pyrazol-1-yl)methanone]
11.8 nM	C[C@@H]1[C@H](Oc2ccccc2)CN1C(=O)N1N=CC[C@H]1c1cc(F)cc(F)c1 (racemic) [Example 1.11, ((S)-5-(3,5-difluorophenyl)-4,5-dihydro-1H-pyrazol-1-yl)((2R,3R and 2S,3S)-2-methyl-3-phenoxyazetidin-1-yl)methanone, TFA salt]
3680 nM	O=C(N1CC(O)C1)N1N=CC[C@H]1c1cc(F)cc(F)c1 [Example 1.15, (S)-(5-(3,5-difluorophenyl)-4,5-dihydro-1H-pyrazol-1-yl)(3-hydroxyazetidin-1-yl)methanone]
27.6 nM	O=C(N1CCC1c1ccccc1F)N1N=CC[C@H]1c1cc(F)cc(F)c1 (mixture of isomers) [Example 1.21, ((S)-5-(3,5-difluorophenyl)-4,5-dihydro-1H-pyrazol-1-yl)((R and S)-2-(2-fluorophenyl)azetidin-1-yl)methanone]
600 nM	O=C(N1CC(Oc2ccccc2)C1)N1N=CC[C@@H]1c1cc(F)cc(F)c1 [Example 1.4, (R)-(5-(3,5-difluorophenyl)-4,5-dihydro-1H-pyrazol-1-yl)(3-phenoxyazetidin-1-yl)methanone, TFA salt]
92.7 nM	O=C(N1CC(Oc2ccccc2)C1)N1N=CC[C@H]1C12CCC(CC1)C2 [Example 2.16, ((5S)-5-(bicyclo[2.2.1]heptan-1-yl)-4,5-dihydro-1H-pyrazol-1-yl)(3-phenoxyazetidin-1-yl)methanone]
2460 nM	O=C(N1CC(O)(C2CC2)C1)N1N=CC[C@H]1c1cc(F)cc(F)c1 [Example 1.34, (S)-(3-cyclopropyl-3-hydroxyazetidin-1-yl)(5-(3,5-difluorophenyl)-4,5-dihydro-1H-pyrazol-1-yl)methanone]
175 nM	Cc1noc(C2CN(C(=O)N3N=CC[C@H]3c3cc(F)cc(F)c3)C2)n1 [Example 1.55, (S)-(5-(3,5-difluorophenyl)-4,5-dihydro-1H-pyrazol-1-yl)(3-(3-methyl-1,2,4-oxadiazol-5-yl)azetidin-1-yl)methanone]
9.7 nM	CC1(Oc2ccccc2)CN(C(=O)N2N=CCC2c2cc(F)cc(F)c2)C1 (racemic) [Example 1.2, (R and S)-(5-(3,5-difluorophenyl)-4,5-dihydro-1H-pyrazol-1-yl)(3-methyl-3-phenoxyazetidin-1-yl)methanone, TFA salt]
12.8 nM	O=C(N1CC(Oc2cccnc2)C1)N1N=CC[C@H]1c1cc(F)cc(F)c1 [Example 1.7, (S)-(5-(3,5-difluorophenyl)-4,5-dihydro-1H-pyrazol-1-yl)(3-(pyridin-3-yloxy)azetidin-1-yl)methanone, TFA salt]
33.1 nM	N#Cc1cncc([C@@H]2CC=NN2C(=O)N2CC(Oc3ccc(F)cc3)C2)c1 [Example 2.39, (S)-5-(1-(3-(4-fluorophenoxy)azetidine-1-carbonyl)-4,5-dihydro-1H-pyrazol-5-yl)nicotinonitrile]
12.7 nM	CC1(Oc2ccc(F)cc2)CN(C(=O)N2N=CC[C@H]2c2ccc(Cl)cc2)C1 [Example 2.34, (S)-(5-(4-chlorophenyl)-4,5-dihydro-1H-pyrazol-1-yl)(3-(4-fluorophenoxy)-3-methylazetidin-1-yl)methanone]
29.9 nM	CC(C)OC1CN(C(=O)N2N=CC[C@H]2c2cc(F)cc(F)c2)C1 [Example 1.24, (S)-(5-(3,5-difluorophenyl)-4,5-dihydro-1H-pyrazol-1-yl)(3-isopropoxyazetidin-1-yl)methanone]
57.4 nM	CCC1(Oc2ccccc2)CN(C(=O)N2N=CC[C@H]2c2cc(F)cc(F)c2)C1 [Example 2.45, (S)-(5-(3,5-difluorophenyl)-4,5-dihydro-1H-pyrazol-1-yl)(3-ethyl-3-phenoxyazetidin-1-yl)methanone]
11.4 nM	C[C@@H]1[C@@H](Oc2ccc(F)cc2)CN1C(=O)N1N=CC[C@H]1c1cncc(C#N)c1 [Example 2.24, 5-((S)-1-((2R,3S)-3-(4-fluorophenoxy)-2-methylazetidine-1-carbonyl)-4,5-dihydro-1H-pyrazol-5-yl)nicotinonitrile]
5160 nM	CC(C)C1(O)CN(C(=O)N2N=CC[C@H]2c2ccc(Cl)cc2)C1 [Example 2.7, (S)-(5-(4-chlorophenyl)-4,5-dihydro-1H-pyrazol-1-yl)(3-hydroxy-3-isopropylazetidin-1-yl)methanone]
6.6 nM	O=C(N1CC(c2ccccc2)C1)N1N=CC[C@H]1c1cc(F)cc(F)c1 [Example 1.41, (S)-(5-(3,5-difluorophenyl)-4,5-dihydro-1H-pyrazol-1-yl)(3-phenylazetidin-1-yl)methanone]
10.1 nM	Cc1ncc([C@@H]2CC=NN2C(=O)N2C[C@H](Oc3ccc(F)cc3)[C@H]2C)cc1F [Example 2.23, ((S)-5-(5-fluoro-6-methylpyridin-3-yl)-4,5-dihydro-1H-pyrazol-1-yl)((2R,3S)-3-(4-fluorophenoxy)-2-methylazetidin-1-yl)methanone]
8.8 nM	C[C@@H]1[C@H](Oc2ccccc2)CN1C(=O)N1N=CC[C@H]1c1cc(F)cc(F)c1 (single isomer, unassigned) [Example 1.12, ((S)-5-(3,5-difluorophenyl)-4,5-dihydro-1H-pyrazol-1-yl)((2R,3R or 2S,3S)-2-methyl-3-phenoxyazetidin-1-yl)methanone, TFA salt]
10.6 nM	CC(C)OC1CN(C(=O)N2N=CC[C@H]2c2ccc(Cl)cc2)C1 [Example 2.12, (S)-(5-(4-chlorophenyl)-4,5-dihydro-1H-pyrazol-1-yl)(3-isopropoxyazetidin-1-yl)methanone]
648 nM	N#CC1(c2ccccc2)CN(C(=O)N2N=CC[C@H]2c2cc(F)cc(F)c2)C1 [Example 1.39, (S)-1-(5-(3,5-difluorophenyl)-4,5-dihydro-1H-pyrazole-1-carbonyl)-3-phenylazetidine-3-carbonitrile]
7 nM	O=C(N1CC(Oc2ccc(F)cc2)C1)N1N=CC[C@H]1c1cc(F)cc(F)c1 [Example 1.50, (S)-(5-(3,5-difluorophenyl)-4,5-dihydro-1H-pyrazol-1-yl)(3-(4-fluorophenoxy)azetidin-1-yl)methanone]
7.6 nM	C[C@@H]1[C@@H](Oc2ccc(F)cc2)CN1C(=O)N1N=CC[C@H]1c1cncc(F)c1 [Example 2.22, ((2R,3S)-3-(4-fluorophenoxy)-2-methylazetidin-1-yl)((S)-5-(5-fluoropyridin-3-yl)-4,5-dihydro-1H-pyrazol-1-yl)methanone]
2430 nM	O=C(N1CC(O)(c2ccccc2)C1)N1N=CC[C@H]1c1ccc(Cl)cc1 [Example 2.8, (S)-(5-(4-chlorophenyl)-4,5-dihydro-1H-pyrazol-1-yl)(3-hydroxy-3-phenylazetidin-1-yl)methanone]
17.1 nM	CCOc1cccc(CC2CN(C(=O)N3N=CC[C@H]3c3cc(F)cc(F)c3)C2)c1 [Example 1.48, (S)-(5-(3,5-difluorophenyl)-4,5-dihydro-1H-pyrazol-1-yl)(3-(3-ethoxybenzyl)azetidin-1-yl)methanone]
11.8 nM	O=C(N1CC(OCc2ccccc2)C1)N1N=CC[C@H]1c1cc(F)cc(F)c1 [Example 1.25, (S)-(3-(benzyloxy)azetidin-1-yl)(5-(3,5-difluorophenyl)-4,5-dihydro-1H-pyrazol-1-yl)methanone]
3450 nM	O=C(N1CC2(C1)CN(c1ccccn1)C2)N1N=CC[C@H]1c1cc(F)cc(F)c1 [Example 1.19, (S)-(5-(3,5-difluorophenyl)-4,5-dihydro-1H-pyrazol-1-yl)(6-(pyridin-2-yl)-2,6-diazaspiro[3.3]heptan-2-yl)methanone, TFA salt]
1110 nM	O=C(N1CC(c2ccncn2)C1)N1N=CC[C@H]1c1cc(F)cc(F)c1 [Example 1.51, (S)-(5-(3,5-difluorophenyl)-4,5-dihydro-1H-pyrazol-1-yl)(3-(pyrimidin-4-yl)azetidin-1-yl)methanone]

Structure (SMILES)	EC50
O=C(N1CC(OC2CCC2)C1)N1N=CC[C@H]1c1cc(F)cc(F)c1 [Example 2.47, (S)-(3-cyclobutoxyazetidin-1-yl)(5-(3,5-difluorophenyl)-4,5-dihydro-1H-pyrazol-1-yl)methanone]	92.7 nM
